What was measured:
[1] = tested on: barnyardgrass; experiment: Test A preemergence; assay type: in vivo, Echinochloa crus-galli; conditions: for Barnyardgrass plant response rating: 500 g ai/ha
How it was run: (§1)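 Injury scores run from 0, no effect, to 100, complete control, judged by eye against untreated plants roughly 10 days after treatment. Chemicals carried a surfactant in a non-phytotoxic solvent and went onto loam–sand soil preemergence or onto one- to two-leaf seedlings postemergence.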

[2] = tested on: large (Lg) crabgrass; experiment: Test A preemergence; assay type: in vivo, Digitaria sanguinalis; conditions: for Crabgrass, Large plant response rating: 500 g ai/ha
How it was run: as §1

[3] = tested on: giant foxtail; experiment: Test A preemergence; assay type: in vivo, Setaria faberii; conditions: for Foxtail, Giant plant response rating: 500 g ai/ha
How it was run: as §1

[4] = tested on: morningglory; experiment: Test A preemergence; assay type: in vivo, Ipomoea spp.; conditions: for Morningglory plant response rating: 500 g ai/ha
How it was run: as §1

[5] = tested on: pigweed; experiment: Test A preemergence; assay type: in vivo, Amaranthus retroflexus; conditions: for Pigweed plant response rating: 500 g ai/ha
How it was run: as §1

[6] = tested on: velvetleaf; experiment: Test A preemergence; assay type: in vivo, Abutilon theophrasti; conditions: for Velvetleaf plant response rating: 500 g ai/ha
How it was run: as §1

[7] = tested on: wheat; experiment: Test A preemergence; assay type: in vivo, Triticum aestivum; conditions: for Wheat plant response rating: 500 g ai/ha
How it was run: as §1

[8] = tested on: corn; experiment: Test A preemergence; assay type: in vivo, Zea mays; conditions: for Corn plant response rating: 500 g ai/ha
How it was run: as §1

[9] = tested on: barnyardgrass; experiment: Test A postemergence; assay type: in vivo, Echinochloa crus-galli
How it was run: as §1

[10] = tested on: large (Lg) crabgrass; experiment: Test A postemergence; assay type: in vivo, Digitaria sanguinalis
How it was run: as §1

[11] = tested on: giant foxtail; experiment: Test A postemergence; assay type: in vivo, Setaria faberii
How it was run: as §1

[12] = tested on: morningglory; experiment: Test A postemergence; assay type: in vivo, Ipomoea spp.
How it was run: as §1

[13] = tested on: pigweed; experiment: Test A postemergence; assay type: in vivo, Amaranthus retroflexus
How it was run: as §1

[14] = tested on: velvetleaf; experiment: Test A postemergence; assay type: in vivo, Abutilon theophrasti
How it was run: as §1

[15] = tested on: wheat; experiment: Test A postemergence; assay type: in vivo, Triticum aestivum
How it was run: as §1

[16] = tested on: corn; experiment: Test A postemergence; assay type: in vivo, Zea mays
How it was run: as §1

[17] = tested on: rice; experiment: Test B flooded paddy test; assay type: in vivo, Oryza sativa; conditions: Flood, 250 g ai/ha; 0 to 100 scale where 0 is no effect and 100 is complete control
How it was run: (§2)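 Visual ratings on a 0 to 100 scale, where 100 means complete control, compared treated plants with controls after 13 to 15 days in a greenhouse. Treatment went into paddy water 3 cm deep over the soil, applied to plants at the 2-leaf stage.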

[18] = tested on: sedge, umbrella; experiment: Test B flooded paddy test; assay type: in vivo, Cyperus difformis; conditions: Flood, 250 g ai/ha; 0 to 100 scale where 0 is no effect and 100 is complete control
How it was run: as §2

[19] = tested on: Heteranthera limosa; experiment: Test B flooded paddy test; assay type: in vivo; conditions: Flood, 250 g ai/ha; 0 to 100 scale where 0 is no effect and 100 is complete control
How it was run: as §2

[20] = tested on: barnyardgrass; experiment: Test B flooded paddy test; assay type: in vivo, Echinochloa crus-galli; conditions: Flood, 250 g ai/ha; 0 to 100 scale where 0 is no effect and 100 is complete control
How it was run: as §2

[21] = 125 g ai/ha, 0 to 100 scale where 0 is no effect and 100 is complete control
[22] = 0 to 100 scale, 0 no effect, 100 complete control, approx. 10 days
[23] = 500 g ai/ha, 0 to 100 scale, 0 no effect, 100 complete control
[24] = 0 to 100 scale where 0 is no effect and 100 is complete control
[25] = 500 g ai/ha, 0 to 100 scale where 0 is no effect and 100 is complete control

Structure (SMILES): CC=Cc1cnn(-c2ccccc2Oc2ncc(Cl)cn2)c1 [Compound 27]
- Plant response rating, Barnyardgrass [1, 21]: 0
- Barnyardgrass plant response rating [1, 22]: 20
- Plant response rating, Crabgrass, Large [2, 21]: 0
- Crabgrass, Large plant response rating [2, 22]: 50
- Plant response rating, Foxtail, Giant [3, 21]: 0
- Foxtail, Giant plant response rating [3, 22]: 40
- Plant response rating, Morningglory [4, 21]: 0
- Morningglory plant response rating [4, 22]: 0
- Plant response rating, Pigweed [5, 21]: 10
- Pigweed plant response rating [5, 22]: 20
- Plant response rating, Velvetleaf [6, 21]: 0
- Velvetleaf plant response rating [6, 22]: 10
- Plant response rating, Wheat [7, 21]: 0
- Wheat plant response rating [7, 22]: 0
- Plant response rating, Corn [8, 21]: 0
- Corn plant response rating [8, 22]: 0
- Plant response rating, Barnyardgrass [9, 21]: 0
- Plant response rating, Barnyardgrass [9, 23]: 10
- Plant response rating, Crabgrass, Large [10, 21]: 20
- Plant response rating, Crabgrass, Large [10, 23]: 60
- Plant response rating, Foxtail, Giant [11, 21]: 0
- Plant response rating, Foxtail, Giant [11, 23]: 30
- Plant response rating, Morningglory [12, 21]: 10
- Plant response rating, Morningglory [12, 23]: 50
- Plant response rating, Pigweed [13, 21]: 60
- Plant response rating, Pigweed [13, 23]: 70
- Plant response rating, Velvetleaf [14, 21]: 50
- Plant response rating, Velvetleaf [14, 23]: 70
- Plant response rating, Wheat [15, 21]: 0
- Plant response rating, Wheat [15, 23]: 0
- Plant response rating, Corn [16, 21]: 0
- Plant response rating, Corn [16, 23]: 10
- Plant response rating, Rice [17]: 0
- Plant response rating, Sedge, Umbrella [18]: 75
- Plant response rating, Ducksalad [19]: 75
- Plant response rating, Barnyardgrass [20]: 0

Structure (SMILES): N#Cc1cccc(Oc2ncc(Cl)cn2)c1-n1cccn1 [Compound 208]
- Barnyardgrass plant response rating (0 to 100 scale, 0 is no effect, 100 is complete control) ([1]; 125 g ai/ha): 0
- Barnyardgrass plant response rating [1, 24]: 70
- Crabgrass, Large plant response rating (0 to 100 scale) ([2]; 125 g ai/ha): 20
- Crabgrass, Large plant response rating [2, 24]: 100
- Foxtail, Giant plant response rating (0 to 100 scale) ([3]; 125 g ai/ha): 20
- Foxtail, Giant plant response rating [3, 24]: 90
- Morningglory plant response rating (0 to 100 scale) ([4]; 125 g ai/ha): 0
- Morningglory plant response rating [4, 24]: 30
- Pigweed plant response rating (0 to 100 scale) ([5]; 125 g ai/ha): 30
- Pigweed plant response rating [5, 24]: 100
- Velvetleaf plant response rating (0 to 100 scale) ([6]; 125 g ai/ha): 0
- Velvetleaf plant response rating [6, 24]: 50
- Wheat plant response rating (0 to 100 scale) ([7]; 125 g ai/ha): 0
- Wheat plant response rating [7, 24]: 20
- Corn plant response rating (0 to 100 scale) ([8]; 125 g ai/ha): 0
- Corn plant response rating [8, 24]: 0
- Barnyardgrass plant response rating [9, 21]: 0
- Plant response rating, Barnyardgrass [9, 25]: 0
- Crabgrass, Large plant response rating [10, 21]: 0
- Plant response rating, Crabgrass, Large [10, 25]: 20
- Foxtail, Giant plant response rating [11, 21]: 0
- Plant response rating, Foxtail, Giant [11, 25]: 20
- Morningglory plant response rating [12, 21]: 20
- Plant response rating, Morningglory [12, 25]: 80
- Pigweed plant response rating [13, 21]: 30
- Plant response rating, Pigweed [13, 25]: 100
- Velvetleaf plant response rating [14, 21]: 40
- Plant response rating, Velvetleaf [14, 25]: 60
- Wheat plant response rating [15, 21]: 0
- Plant response rating, Wheat [15, 25]: 0
- Corn plant response rating [16, 21]: 0
- Plant response rating, Corn [16, 25]: 20
- Plant response rating, Rice [17]: 0
- Plant response rating, Sedge, Umbrella [18]: 0
- Plant response rating, Ducksalad [19]: 0
- Plant response rating, Barnyardgrass [20]: 0

Structure (SMILES): Cc1cccc(Oc2ncc(Cl)cn2)c1-n1cc(Br)cn1 [Compound 44]
- Plant response rating, Barnyardgrass [1, 21]: 50
- Barnyardgrass plant response rating [1, 22]: 100
- Plant response rating, Crabgrass, Large [2, 21]: 90
- Crabgrass, Large plant response rating [2, 22]: 100
- Plant response rating, Foxtail, Giant [3, 21]: 60
- Foxtail, Giant plant response rating [3, 22]: 100
- Plant response rating, Morningglory [4, 21]: 50
- Morningglory plant response rating [4, 22]: 60
- Plant response rating, Pigweed [5, 21]: 100
- Pigweed plant response rating [5, 22]: 100
- Plant response rating, Velvetleaf [6, 21]: 70
- Velvetleaf plant response rating [6, 22]: 100
- Plant response rating, Wheat [7, 21]: 0
- Wheat plant response rating [7, 22]: 20
- Plant response rating, Corn [8, 21]: 0
- Corn plant response rating [8, 22]: 20
- Plant response rating, Barnyardgrass [9, 21]: 30
- Plant response rating, Barnyardgrass [9, 23]: 90
- Plant response rating, Crabgrass, Large [10, 21]: 80
- Plant response rating, Crabgrass, Large [10, 23]: 100
- Plant response rating, Foxtail, Giant [11, 21]: 50
- Plant response rating, Foxtail, Giant [11, 23]: 90
- Plant response rating, Morningglory [12, 21]: 20
- Plant response rating, Morningglory [12, 23]: 60
- Plant response rating, Pigweed [13, 21]: 70
- Plant response rating, Pigweed [13, 23]: 100
- Plant response rating, Velvetleaf [14, 21]: 100
- Plant response rating, Velvetleaf [14, 23]: 100
- Plant response rating, Wheat [15, 21]: 0
- Plant response rating, Wheat [15, 23]: 30
- Plant response rating, Corn [16, 21]: 20
- Plant response rating, Corn [16, 23]: 40
- Plant response rating, Rice [17]: 45
- Plant response rating, Sedge, Umbrella [18]: 90
- Plant response rating, Ducksalad [19]: 100
- Plant response rating, Barnyardgrass [20]: 20
